Measurements reported in patent US20210212996A1, “METHODS OF TREATING NEURODEGENERATIVE DISEASES USING INDANE ACETIC ACID DERIVATIVES WHICH PENETRATE THE BLOOD BRAIN BARRIER” (DARA BioSciences, Inc., priority 2009, published 2021).
Read-outs that look alike come from different tables or passages of the source.

Experiments:
[1] = Rat brain penetrance pharmacokinetics, brain to plasma ratio after oral dosing; format: in vivo, male Sprague-Dawley rats; details: for concentration at 7 h: time point 7.0, individual rats
Excerpt: Blood brain penetration studies can be carried out as described in recent publications and as is known by those skilled in the art. (See: Chang, K. L., et al. Influence of drug transporters and stereoselectivity on the brain penetration of pioglitazone as a potential medicine against Alzheimer's disease. Science Reports 2014, 5, 9000). In brief, A good measure of whether a small molecule penetrates the BBB and is not rapidly transported out, is the brain to plasma ratio of the drug. This is measured in pre-clinical animal models by determining plasma concentration vs time curves as in a standard pharmacokinetic study, and in addition harvesting brains and determining whole brain concentrations over time. The brain to plasma concentration ratio can them be determined at any time point, such as the […], or for the entire time curve (AUC, area under the curve). Clinically, FDG-PET can be used as a measure of the pharmacological effect of T3D-959, and an indirect measure of brain levels of drug.
For compounds of the present invention to be effective in treating neurotoxicity or neurodegeneration, it must have an ability to cross the BBB and penetrate the brain. […] The plasma exposure as measured by AUClast was 9569±1190 hr*ng/mL.

human PPARα = biological target: T1, human PPARα (Homo sapiens, UniProt Q07869); test: Human PPAR activation in transient transfection study, transfected CV-1 cells (alpha subtype); format: cell-based
T1 construct: expressed in transfected cells; host or cells: CV-1 cells (transient transfection)
T1 sequence (Q07869 1-468): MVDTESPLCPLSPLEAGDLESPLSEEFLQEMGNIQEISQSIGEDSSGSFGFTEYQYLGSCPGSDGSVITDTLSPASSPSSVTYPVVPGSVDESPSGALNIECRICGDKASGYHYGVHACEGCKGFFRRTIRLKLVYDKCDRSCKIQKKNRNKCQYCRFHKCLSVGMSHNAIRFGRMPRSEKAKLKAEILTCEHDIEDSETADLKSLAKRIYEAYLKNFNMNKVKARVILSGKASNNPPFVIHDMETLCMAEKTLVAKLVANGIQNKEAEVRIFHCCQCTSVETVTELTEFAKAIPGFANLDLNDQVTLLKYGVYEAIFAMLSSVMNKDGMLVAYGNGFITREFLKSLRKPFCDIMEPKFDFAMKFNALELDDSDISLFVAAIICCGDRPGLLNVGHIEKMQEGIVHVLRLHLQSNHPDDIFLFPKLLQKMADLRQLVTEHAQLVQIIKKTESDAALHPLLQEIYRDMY
Excerpt: (§1) The table summarize the results of studies performed in transfected CV-1 cells with three different lots of Compound of Example 11. […].

human Caco-2 = test: Caco-2 permeability with and without P-gp inhibitor verapamil; details: Caco-2 with/without verapamil
[2] = as above; details: human, Caco-2
[3] = system: Relative Cerebral Metabolic Rate for glucose; test: FDG-PET clinical study, two week treatment; format: in vivo, human
Excerpt: The majority were non-Hispanic and of white origin.

human PPARδ = biological target: T2, human PPARδ (Homo sapiens, UniProt Q03181); test: Human PPAR activation in transient transfection study, transfected CV-1 cells (delta subtype); format: cell-based
T2 construct: expressed in transfected cells; host or cells: CV-1 cells (transient transfection)
T2 sequence (Q03181 1-441): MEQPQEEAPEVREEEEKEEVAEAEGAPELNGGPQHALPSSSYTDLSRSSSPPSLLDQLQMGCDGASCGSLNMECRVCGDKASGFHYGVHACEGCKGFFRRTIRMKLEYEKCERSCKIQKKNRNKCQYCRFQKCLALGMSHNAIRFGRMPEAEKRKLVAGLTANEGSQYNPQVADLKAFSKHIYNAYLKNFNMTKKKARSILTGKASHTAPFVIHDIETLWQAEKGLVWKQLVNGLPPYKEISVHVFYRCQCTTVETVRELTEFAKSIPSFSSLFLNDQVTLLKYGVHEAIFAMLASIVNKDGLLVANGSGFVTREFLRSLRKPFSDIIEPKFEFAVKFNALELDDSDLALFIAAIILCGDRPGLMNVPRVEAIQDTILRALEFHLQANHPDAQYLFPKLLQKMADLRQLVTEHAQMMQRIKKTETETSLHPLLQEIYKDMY

human PPARγ = biological target: T3, human PPARγ (Homo sapiens, UniProt P37231); test: Human PPAR activation in transient transfection study, transfected CV-1 cells (gamma subtype); format: cell-based
T3 construct: expressed in transfected cells; host or cells: CV-1 cells (transient transfection)
T3 sequence (P37231 1-505): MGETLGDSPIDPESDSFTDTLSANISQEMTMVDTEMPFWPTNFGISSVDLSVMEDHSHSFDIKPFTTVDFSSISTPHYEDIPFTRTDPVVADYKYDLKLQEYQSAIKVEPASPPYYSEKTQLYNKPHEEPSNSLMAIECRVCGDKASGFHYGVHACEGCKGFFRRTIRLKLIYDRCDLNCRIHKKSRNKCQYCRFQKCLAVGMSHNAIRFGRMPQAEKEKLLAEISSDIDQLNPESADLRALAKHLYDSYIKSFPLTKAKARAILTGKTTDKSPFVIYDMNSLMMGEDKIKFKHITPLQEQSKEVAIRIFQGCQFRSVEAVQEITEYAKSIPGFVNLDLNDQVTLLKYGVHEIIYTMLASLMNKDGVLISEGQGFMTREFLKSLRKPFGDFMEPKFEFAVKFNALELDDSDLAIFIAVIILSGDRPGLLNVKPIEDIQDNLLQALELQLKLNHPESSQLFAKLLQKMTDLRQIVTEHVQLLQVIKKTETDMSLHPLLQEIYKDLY
Excerpt: as §1

CCc1oc(-c2ccc(OC)cc2)nc1CCOc1ccc2c(c1)CC[C@H]2CC(=O)[O-].[Na+] [Example 11, Sodium (S)-2-(5-(2-(5-ethyl-2-(4-methoxyphenyl)oxazol-4-yl)ethoxy)-2,3-dihydro-1H-inden-1-yl)acetate]
time plasma Cmax reached post dose ([1]; 3 mg/kg oral): 5 h | concentration at 7 h ([1]; male, Sprague-Dawley, rat, brain, oral, 3 mg/kg, read-out: Brain Tissue Cone.): 130 ng/g | Kp at 3 h ([1]; male, Sprague-Dawley, rat, in vivo, 3 mg/kg, time point 3.0, individual rats, read-out: B/P Ratio): 0.19 | concentration at 3 h ([1]; male, Sprague-Dawley, rat, in vivo, 3 mg/kg, time point 3.0, individual rats, read-out: Brain Tissue Cone.): 274 ng/g | concentration at 3 h ([1]; male, Sprague-Dawley, rat, in vivo, 3 mg/kg, time point 3.0, individual rats, read-out: Plasma Conc.): 1430 ng/mL | Kp at 5 h ([1]; male, Sprague-Dawley, rat, in vivo, 3 mg/kg, time point 5.0, individual rats, read-out: B/P Ratio): 0.17 | concentration at 5 h ([1]; male, Sprague-Dawley, rat, in vivo, 3 mg/kg, time point 5.0, individual rats, read-out: Brain Tissue Cone.): 208 ng/g | concentration at 5 h ([1]; male, Sprague-Dawley, rat, in vivo, 3 mg/kg, time point 5.0, individual rats, read-out: Plasma Conc.): 1260 ng/mL | concentration at 7 h ([1]; male, Sprague-Dawley, rat, in vivo, 3 mg/kg, read-out: Brain Tissue Cone.): 203 ng/g | Kp at 12 h ([1]; male, Sprague-Dawley, rat, in vivo, 3 mg/kg, time point 12.0, individual rats, read-out: B/P Ratio): 0.3 | concentration at 12 h ([1]; male, Sprague-Dawley, rat, in vivo, 3 mg/kg, time point 12.0, individual rats, read-out: Brain Tissue Cone.): 104 ng/g | concentration at 12 h ([1]; male, Sprague-Dawley, rat, in vivo, 3 mg/kg, time point 12.0, individual rats, read-out: Plasma Conc.): 345 ng/mL | Kp at 1 h ([1]; male, Sprague-Dawley, rat, in vivo, po, 3 mg/kg, 1 hour, 3 mg/kg oral): 0.361 ± 0.142 | Kp at 3 h ([1]; male, Sprague-Dawley, rat, in vivo, po, 3 mg/kg, 3 hours, 3 mg/kg oral, read-out: Brain/Plasma ratio): 0.22 ± 0.033 | Kp at 5 h ([1]; male, Sprague-Dawley, rat, in vivo, po, 3 mg/kg, 5 hours, 3 mg/kg oral, read-out: Brain/Plasma ratio): 0.171 ± 0.011 | Kp at 7 h ([1]; male, Sprague-Dawley, rat, in vivo, po, 3 mg/kg, 7 hours, 3 mg/kg oral): 0.328 ± 0.154 | Kp at 12 h ([1]; male, Sprague-Dawley, rat, in vivo, po, 3 mg/kg, 12 hours, 3 mg/kg oral, read-out: Brain/Plasma ratio): 0.35 ± 0.077 | half-life ([1]; male, Sprague-Dawley, rat, in vivo, 3 mg/kg oral): 3.33 h | Cmax ([1]; male, Sprague-Dawley, rat, in vivo, 3 mg/kg oral, normal saline): 1550 ± 248 ng/mL | AUC(0-t) ([1]; male, Sprague-Dawley, rat, in vivo, 3 mg/kg oral, read-out: plasma exposure AUClast): 9570 ± 1190 ng·h/mL | concentration at 3 h ([1]; male, Sprague-Dawley, rat, plasma, oral, 3 mg/kg, time point 3.0, individual rats, read-out: Plasma Conc.): 910 ng/mL | EC50 (human PPARα; Lot A, Non GMP, read-out: EC50 PPARα): 488 nM | EC50 (human PPARα; Lot B, GLP Nonclinical Studies, read-out: EC50 PPARα): 750 nM | EC50 (human PPARα; Lot C, cGMP material, read-out: EC50 PPARα): 360 nM | selectivity over the human PPAR alpha subtype (human PPARα; PPARδ vs PPARα): ~30 fold | EC50 (human PPARα; average of three lots, read-out: Average EC50 PPARα): 530 nM | P-gp substrate (human Caco-2): not a substrate for P-gp | Papp [2]: 114 ×10⁻⁶ cm/s | number of voxels with statistically significant differences from baseline to end of treatment (ROSDs) ([3]; 10 mg): 70 voxels | penetration of the Blood Brain Barrier (FDG-PET, voxel-wise analysis) ([3]; clinical, 3 to 90 mg): penetrates the Blood Brain Barrier (BBB) even at the lowest 3 mg | dose dependence of the effect on FDG-PET outcomes ([3]; sROI, anatomical ROI and voxel-wise SPM analyses): dose-dependent, with larger effects observed at larger doses | EC50 (human PPARδ; Lot A, Non GMP, read-out: EC50 PPARδ): 15 nM | EC50 (human PPARδ; Lot B, GLP Nonclinical Studies, read-out: EC50 PPARδ): 27 nM | EC50 (human PPARδ; Lot C, cGMP material, read-out: EC50 PPARδ): 16 nM | EC50 (human PPARδ; average of three lots, read-out: Average EC50 PPARδ): 19 nM | EC50 (human PPARγ; Lot A, Non GMP, read-out: EC50 PPARγ): 220 nM | EC50 (human PPARγ; Lot B, GLP Nonclinical Studies, read-out: EC50 PPARγ): 270 nM | EC50 (human PPARγ; Lot C, cGMP material, read-out: EC50 PPARγ): 400 nM | EC50 (human PPARγ; average of three lots, read-out: Average EC50 PPARγ): 297 nM
